# Results taken from patent US12263248B2, “Compounds and compositions for intracellular delivery of therapeutic agents” (ModernaTX, Inc., priority 2018, dated 2025).
# Tests used:
# [1] = system: hEPO mRNA; assay: Pretreatment study in Cynomolgus monkeys (standard MC3 formulation, hEPO mRNA); type: in vivo; conditions: once weekly for four weeks, absence of any pretreatment
# Method: The effects of pretreatment to non-human primates were evaluated using a standard MC3 formulation including an mRNA encoding hEPO. Male monkeys were administered the nanoparticle composition once weekly for four weeks at a dose rate of 5 ml/kg/h and were pretreated with either methotrexate or dexamethasone.
# As shown, in the absence of any pretreatment, maximal expression levels decreased nearly 70% over the course of the study.
# [2] = One month toxicology evaluation in non-human primate: serum ALT and AST; type: in vivo; conditions: cynomolgus monkeys, 1 mg/kg mRNA, intravenously by 60 min infusion, dosed weekly, 24 post fifth dose; PBS pre-dose vs day 30 levels
# Method: FIGS. 32A-32C are a series of graphs summarizing the results of a one month toxicology evaluation in rat and non-human primate. PBS (phosphate buffered saline) was used as a control. […] The serum levels were measured 24 post fifth dose (n=4). […] The serum levels were measured 24 post fifth dose (n=4).
# [3] = One month toxicology evaluation: C5b9 and MCP-1 serum concentration in cynomolgus monkeys; type: in vivo; conditions: 1 mg/kg mRNA, day 1 and day 29, vs PBS
# Source text: FIGS. 33A and 33B are a pair of graphs summarizing the results of a one month toxicology evaluation in rats and non-human primates.
# [4] = system: IL-6, MCP-1; assay: Cytokine induction in non-human primates; type: in vivo, Cynomolgus monkeys
# Method: The tolerability and efficacy of nanoparticle compositions to non-human primates was also investigated using a sample formulation including Compound 18. The formulation was prepared according to the standard MC3 formulation described above and included an hEPO mRNA. Primates were administered a single dose of 0.05 (Group 1), 0.3 (Group 2), or 1.0 (Group 3) mpk via intravenous infusion for 60 minutes. Three primates were administered each dose. Expression of hEPO was measured prior to dosing and at 2, 6, 24, 48, and 96 hours post-treatment (Table 26). Table 28 includes levels of indicators of complement activation, while Table 29 includes cytokine induction data.
# hEPO ELISA for NHP samples: Human Epo levels were measured using a human erythropoietin immunoassay. Cytokines levels were measured using a non-human primate cytokine kit.
# [5] = One-month toxicological evaluation with weekly dosing in rat; type: in vivo, Sprague Dawley rat; conditions: weekly dosing 0.05, 0.5 and 2 mg/kg, one-month study
# Method: Serum ALT and AST levels: Samples were analyzed using a Modular Analytics analyzer.
# Next, tolerability and safety of the compound 18-based LNPs in vivo was tested. A full toxicological evaluation of compound 18-based LNPs in both Sprague Dawley rat and cynomolgus monkey was performed using a standard one-month study with weekly dosing at three dose levels in each species. Rats were dosed at 0.05, 0.5, and 2 mg/kg and a non-human primates was dosed at 0.1, 0.3, and 1 mg/kg. LNP-related toxicities associated with MC3-based LNP systems are generally associated with immunological (cytokine and complement activation) and hepatic injury. […] FIGS. 32 and 33 highlight the day 30 levels of alanine transferase (ALT, FIG. 32A) and aspartate aminotransferase (AST, FIG. 32B), two indicators of liver damage.
# [6] = system: ApoE-mediated LDLr dependent uptake; assay: Expression in ApoE knockout mice and LDLr knockout mice; conditions: mouse, in vivo
# [7] = Sprague Dawley, rat, in vivo, iv, 5 mg/kg, 20 min
# Method: Sprague Dawley rats were administered with nanoparticles of the disclosure via i.v. bolus at 5 mpk. The nanoparticle contained two mRNA encoding a broadly neutralizing influenza antibody in a 2:1 ratio.
structure (smiles),measurement,setting,value
"CCCCC/C=C\C/C=C\CCCCCCCCC(CCCCCCCC/C=C\C/C=C\CCCCC)OC(=O)CCCN(C)C [MC3, DLin-MC3-DMA, reference compound]",decrease of maximal expression levels over the course of the study,[1],~70%
"CCCCCCCCCOC(=O)CCCCCCCN(CCO)CCCCCCCC(=O)OC(CCCCCCCC)CCCCCCCC [Compound 18, Heptadecan-9-yl 8-((2-hydroxyethyl)(8-(nonyloxy)-8-oxooctyl)amino)octanoate]",serum alanine aminotransferase levels,[2],No statistical difference
same,serum aspartate aminotransferase levels,[2],No statistical difference
same,C5b9 serum concentration,[3]; all timepoints,No statistical difference
same,MCP-1 serum concentration,[3]; any timepoint other than the one marked *p<0.05,no statistical difference
same,IFNg,"[4]; 0.05 mpk, 2 h",18.8 pg/mL
same,IFNα,"[4]; 0.05 mpk, 2 h",18.8 pg/mL
same,IL-1b,"[4]; 0.05 mpk, 2 h",18.8 pg/mL
same,IL-6,"[4]; 0.05 mpk, 2 h",18.8 pg/mL
same,MCP-1,"[4]; 0.05 mpk, 2 h",342 pg/mL
same,TNF-α,"[4]; 0.05 mpk, 2 h",18.8 pg/mL
same,IFNg,"[4]; 0.05 mpk, 6 h",18.8 pg/mL
same,IFNα,"[4]; 0.05 mpk, 6 h",18.8 pg/mL
same,IL-1b,"[4]; 0.05 mpk, 6 h",18.8 pg/mL
same,IL-6,"[4]; 0.05 mpk, 6 h",18.8 pg/mL
same,MCP-1,"[4]; 0.05 mpk, 6 h",543 pg/mL
same,TNF-α,"[4]; 0.05 mpk, 6 h",41.5 pg/mL
same,IFNg,"[4]; 0.05 mpk, 24 h",18.8 pg/mL
same,IFNα,"[4]; 0.05 mpk, 24 h",18.8 pg/mL
same,IL-1b,"[4]; 0.05 mpk, 24 h",18.8 pg/mL
same,IL-6,"[4]; 0.05 mpk, 24 h",18.8 pg/mL
same,MCP-1,"[4]; 0.05 mpk, 24 h",236 pg/mL
same,TNF-α,"[4]; 0.05 mpk, 24 h",17.6 pg/mL
same,IFNg,"[4]; 0.05 mpk, Day 5",39.3 pg/mL
same,IFNα,"[4]; 0.05 mpk, Day 5",18.8 pg/mL
same,IL-1b,"[4]; 0.05 mpk, Day 5",18.8 pg/mL
same,IL-6,"[4]; 0.05 mpk, Day 5",18.8 pg/mL
same,MCP-1,"[4]; 0.05 mpk, Day 5",232 pg/mL
same,TNF-α,"[4]; 0.05 mpk, Day 5",63.5 pg/mL
same,IFNg,"[4]; 0.05 mpk, Predose",18.8 pg/mL
same,IFNα,"[4]; 0.05 mpk, Predose",18.8 pg/mL
same,IL-1b,"[4]; 0.05 mpk, Predose",18.8 pg/mL
same,IL-6,"[4]; 0.05 mpk, Predose",18.8 pg/mL
same,MCP-1,"[4]; 0.05 mpk, Predose",192 pg/mL
same,TNF-α,"[4]; 0.05 mpk, Predose",18.8 pg/mL
same,IFNg,"[4]; 0.3 mpk, 2 h",18.8 pg/mL
same,IFNα,"[4]; 0.3 mpk, 2 h",18.8 pg/mL
same,IL-1b,"[4]; 0.3 mpk, 2 h",18.8 pg/mL
same,IL-6,"[4]; 0.3 mpk, 2 h",191 pg/mL
same,MCP-1,"[4]; 0.3 mpk, 2 h",3018 pg/mL
same,TNF-α,"[4]; 0.3 mpk, 2 h",38.2 pg/mL
same,IFNg,"[4]; 0.3 mpk, 6 h",18.8 pg/mL
same,IFNα,"[4]; 0.3 mpk, 6 h",18.8 pg/mL
same,IL-1b,"[4]; 0.3 mpk, 6 h",18.8 pg/mL
same,IL-6,"[4]; 0.3 mpk, 6 h",33.0 pg/mL
same,MCP-1,"[4]; 0.3 mpk, 6 h",2011 pg/mL
same,TNF-α,"[4]; 0.3 mpk, 6 h",32.5 pg/mL
same,IFNg,"[4]; 0.3 mpk, 24 h",18.8 pg/mL
same,IFNα,"[4]; 0.3 mpk, 24 h",18.8 pg/mL
same,IL-1b,"[4]; 0.3 mpk, 24 h",18.8 pg/mL
same,IL-6,"[4]; 0.3 mpk, 24 h",18.8 pg/mL
same,MCP-1,"[4]; 0.3 mpk, 24 h",404 pg/mL
same,TNF-α,"[4]; 0.3 mpk, 24 h",59.6 pg/mL
same,IFNg,"[4]; 0.3 mpk, Day 5",18.8 pg/mL
same,IFNα,"[4]; 0.3 mpk, Day 5",18.8 pg/mL
same,IL-1b,"[4]; 0.3 mpk, Day 5",18.8 pg/mL
same,IL-6,"[4]; 0.3 mpk, Day 5",18.8 pg/mL
same,MCP-1,"[4]; 0.3 mpk, Day 5",211 pg/mL
same,TNF-α,"[4]; 0.3 mpk, Day 5",18.8 pg/mL
same,IFNg,"[4]; 0.3 mpk, Predose",18.8 pg/mL
same,IFNα,"[4]; 0.3 mpk, Predose",18.8 pg/mL
same,IL-1b,"[4]; 0.3 mpk, Predose",18.8 pg/mL
same,IL-6,"[4]; 0.3 mpk, Predose",18.8 pg/mL
same,MCP-1,"[4]; 0.3 mpk, Predose",168 pg/mL
same,TNF-α,"[4]; 0.3 mpk, Predose",18.8 pg/mL
same,IFNg,"[4]; 1.0 mpk, 2 h",35.8 pg/mL
same,IFNα,"[4]; 1.0 mpk, 2 h",18.8 pg/mL
same,IL-1b,"[4]; 1.0 mpk, 2 h",33.4 pg/mL
same,IL-6,"[4]; 1.0 mpk, 2 h",834 pg/mL
same,MCP-1,"[4]; 1.0 mpk, 2 h",4221 pg/mL
same,TNF-α,"[4]; 1.0 mpk, 2 h",18.8 pg/mL
same,IFNg,"[4]; 1.0 mpk, 6 h",38.9 pg/mL
same,IFNα,"[4]; 1.0 mpk, 6 h",18.8 pg/mL
same,IL-1b,"[4]; 1.0 mpk, 6 h",18.8 pg/mL
same,IL-6,"[4]; 1.0 mpk, 6 h",398 pg/mL
same,MCP-1,"[4]; 1.0 mpk, 6 h",3945 pg/mL
same,TNF-α,"[4]; 1.0 mpk, 6 h",18.8 pg/mL
same,IFNg,"[4]; 1.0 mpk, 24 h",18.8 pg/mL
same,IFNα,"[4]; 1.0 mpk, 24 h",18.8 pg/mL
same,IL-1b,"[4]; 1.0 mpk, 24 h",18.8 pg/mL
same,IL-6,"[4]; 1.0 mpk, 24 h",31.4 pg/mL
same,MCP-1,"[4]; 1.0 mpk, 24 h",1444 pg/mL
same,TNF-α,"[4]; 1.0 mpk, 24 h",46.2 pg/mL
same,IFNg,"[4]; 1.0 mpk, Day 5",18.8 pg/mL
same,IFNα,"[4]; 1.0 mpk, Day 5",18.8 pg/mL
same,IL-1b,"[4]; 1.0 mpk, Day 5",18.8 pg/mL
same,IL-6,"[4]; 1.0 mpk, Day 5",18.8 pg/mL
same,MCP-1,"[4]; 1.0 mpk, Day 5",225 pg/mL
same,TNF-α,"[4]; 1.0 mpk, Day 5",41.9 pg/mL
same,IFNg,"[4]; 1.0 mpk, Predose",18.8 pg/mL
same,IFNα,"[4]; 1.0 mpk, Predose",18.8 pg/mL
same,IL-1b,"[4]; 1.0 mpk, Predose",18.8 pg/mL
same,IL-6,"[4]; 1.0 mpk, Predose",18.8 pg/mL
same,MCP-1,"[4]; 1.0 mpk, Predose",235 pg/mL
same,TNF-α,"[4]; 1.0 mpk, Predose",18.8 pg/mL
same,adverse findings,[5],no adverse findings
same,expression in ApoE knockout mice and LDLr knockout mice,[6],almost complete loss in expression
same,Clinical Observations,[7],20 min- Flushed ears and paws
